We go through one molecule from paper PMC2820545, “Mechanistic Characterization and Molecular Modeling of Hepatitis B Virus Polymerase Resistance to Entecavir” (PLoS ONE, 2010).

Where two headings read alike, the source gives them in different places.

The test system of assay [1] is LVDr L180M + M204V HBV. Set-up: method as in PMID 17267485, PMID 18362040. The conditions noted are these: cited from earlier work.
For assay [2], the system named is wildtype or ETVr HBV polymerase. The experiment in a line: Pyrophosphorolysis removal of incorporated ETV from HBV DNA. The conditions noted are these: wildtype or ETVr enzymes; data not shown. In kind it is biochemical, hepatitis B virus. The text has this: The inability of ETV to be proofread by HIV RT has been reported by Tchesnokov et al..
In assay [3] the test system is HBV clones with ETVr signature substitutions in a LVDr background. The experiment in a line: HBV cell culture susceptibility, ETVr clones as a group. Format: cell-based, hepatitis B virus. The source says:
The levels of ETVr observed in cell culture and in vitro enzymatic assays of representative clones with ETVr substitutions are shown in Table 1. […] High levels of ETVr were observed when HBV clones contained ETVr signature substitutions in a LVDr background both in vitro (>400-fold) and in culture (>200-fold), respectively (Table 1). A full analysis of the different ETVr substitutions in culture has been reported for engineered and clinical ETVr HBV isolates.
(§1) HepG2 cell culture susceptibility assays were performed in cells transfected with HBV expression plasmids and cultured in the presence of a titration of antiviral compounds, as described in detail elsewhere. The levels of replicated, released HBV virions was measured at day five through immunocapture of detergent released nucleocapsids with anti-HBV core Ab and quantification of encapsidated HBV DNA [5]. Data were plotted as percent inhibition and EC50 values calculated as the drug concentration where 50% inhibition of extracellular HBV occurred.

For assay [4], the system named is LVDr L180M + M204V HBV. The experiment in a line: HBV cell culture susceptibility (HBV-transfected HepG2 cells). To be noted: Hepatitis B virus. In kind it is cell-based. On the procedure: (§2) HepG2 human hepatoma cells (American Type Culture Collection) were maintained as described. The laboratory clone of HBV was the genotype D ayw serotype clone kindly provided by Dr. Steven Goff in the plasmid pCMV-HBV [41]. Plasmids expressing HBV RT with resistance substitutions were prepared using QuikChange® site-directed mutagenesis (Stratagene, LaJolla, CA).
as §1

Assay [5] has as its system LVDr + T184G + S202I HBV. Described as above. Format: cell-based. To be noted: Hepatitis B virus, single patient isolate, read-out: ETV EC50, Average ± SD (Range). On the procedure: as §2, §1
The subject of assay [6] is LVDr + M250V HBV. The assay is described as above. In kind it is cell-based. To be noted: Hepatitis B virus, averaged from 2 isolates, read-out: ETV EC50, Average ± SD (Range). On the procedure:
as §2, §1

The subject of assay [7] is LVDr + S202G HBV. The assay is described as above. Format: cell-based. To be noted: Hepatitis B virus, averaged from 2 isolates, read-out: ETV EC50, Average ± SD (Range). How it is done: as §2, §1
The test system of assay [8] is Wildtype HBV. The assay is described as above. Format: cell-based. To be noted: Hepatitis B virus. How it is done:
as §2, §1

Assay [9] relates to LVDr + T184L HBV. The assay is described as above. To be noted: Hepatitis B virus, averaged from 2 isolates, read-out: ETV EC50, Average ± SD (Range). In kind it is cell-based. How it is done: as §2, §1
For assay [10], the system named is LVDr HBV with M250V or M250L. The experiment in a line: HBV cell culture strand-specific EC50 determination. The conditions noted are these: strand-specific riboprobes. Format: cell-based, hepatitis B virus. The source says:
(§3) ETV inhibits HBV polymerase synthesis of DNA in vitro during both RNA-directed first (minus) strand synthesis as well as DNA-directed second (plus) strand synthesis. To determine if ETVr was influenced by the template for DNA synthesis, cell culture EC50 determinations were made using strand-specific riboprobes to hybridize to the synthesized HBV DNA, in parallel with the typical double-stranded DNA probe. In this way an ETV EC50 for each strand of DNA synthesis during the HBV cell culture was determined. […] The minus strand EC50 was similar to the EC50 obtained using the double-stranded DNA probe. These observations are consistent with M250 changes in the primer-grip region of HBV RT influencing ETVr at least in part through the template for DNA synthesis. An independent observation supported this hypothesis; resistance was seen using nucleocapsids prepared in our typical manner (Materials & Methods), isolated from cells grown in PFA to inhibit minus strand synthesis, enhancing the in vitro minus-strand synthesis activity of the preparations. […]
(§4) Figure 5 Analysis of ETVr through strand-specific DNA synthesis in culture. […] The levels of HBV DNA synthesized in the presence of ETV was determined by HBV-specific probe hybridization to HBV nucleocapsid DNA from the cultures. […]

In assay [11] the test system is wildtype, LVDr substituted and LVDr + T184 or S202 substituted HBV. Described as above. Format: cell-based, hepatitis B virus. To be noted: strand-specific riboprobes, minus vs plus strand synthesis.
Description: as §3, §4

Take `C=C1[C@H](CO)[C@@H](O)C[C@@H]1n1cnc2c(=O)[nH]c(N)nc21` [ETV, Entecavir]: the “cross-resistance to ETV in culture” value in assay [1] was “approximately 8 fold”. Moreover, the “removal of ETV incorporated into HBV DNA using pyrophosphorolysis” value in assay [2] is on record as “unable to demonstrate removal”. Besides, in [3], the “level of ETVr in culture” value was more than 200 fold. The EC50 was 30.4 ± 21.6 nM in assay [4] (Cell culture, LVDr L180M + M204V, single isolate, read-out: ETV EC50, Average ± SD (Range)); 31.1 nM in assay [4] (panel of 15 LVDr isolates, read-out: average ETV EC50); more than 4000 nM in assay [5]; 3080 nM in assay [6]; 1210 nM in [7]; 3 ± 1.5 nM in assay [8] (Cell culture, Wildtype HBV, single isolate, read-out: ETV EC50, Average ± SD (Range)). Besides, the 50% effective concentration (EC50) in [8] (panel of 76 wildtype isolates, read-out: average ETV EC50) stood at 3.4 nM; in assay [9], 738 ± 119 nM. In [10], the “strand-specific ETV EC50, first (minus) strand versus second (plus) strand” value is given as “increased relative to that for the second (plus) strand”. Moreover, the “strand-specific ETV EC50, both strands of HBV DNA compared” value in [11] was “nearly equivalent levels of susceptibility”.

A word on the EC50: it is the concentration needed to bring the measured effect to its halfway point.
